Experiments:
[1] = molecular target: PARG (Homo sapiens, UniProt Q86W56); test: Biochemical assay (PARG, TFMU-ADPr substrate); conditions: PARG, TFMU-ADPr substrate
[2] = test system: HCC1806; test: Cell viability assay (CellTiter-Glo); format: cell-based, Human; conditions: Homo sapiens, HCC1806, 168 h, HCC1806, 7 days, CellTiter-Glo; read-out: IC50 (nM) in cell viability assay

Sequence of PARG (Q86W56 whole entry): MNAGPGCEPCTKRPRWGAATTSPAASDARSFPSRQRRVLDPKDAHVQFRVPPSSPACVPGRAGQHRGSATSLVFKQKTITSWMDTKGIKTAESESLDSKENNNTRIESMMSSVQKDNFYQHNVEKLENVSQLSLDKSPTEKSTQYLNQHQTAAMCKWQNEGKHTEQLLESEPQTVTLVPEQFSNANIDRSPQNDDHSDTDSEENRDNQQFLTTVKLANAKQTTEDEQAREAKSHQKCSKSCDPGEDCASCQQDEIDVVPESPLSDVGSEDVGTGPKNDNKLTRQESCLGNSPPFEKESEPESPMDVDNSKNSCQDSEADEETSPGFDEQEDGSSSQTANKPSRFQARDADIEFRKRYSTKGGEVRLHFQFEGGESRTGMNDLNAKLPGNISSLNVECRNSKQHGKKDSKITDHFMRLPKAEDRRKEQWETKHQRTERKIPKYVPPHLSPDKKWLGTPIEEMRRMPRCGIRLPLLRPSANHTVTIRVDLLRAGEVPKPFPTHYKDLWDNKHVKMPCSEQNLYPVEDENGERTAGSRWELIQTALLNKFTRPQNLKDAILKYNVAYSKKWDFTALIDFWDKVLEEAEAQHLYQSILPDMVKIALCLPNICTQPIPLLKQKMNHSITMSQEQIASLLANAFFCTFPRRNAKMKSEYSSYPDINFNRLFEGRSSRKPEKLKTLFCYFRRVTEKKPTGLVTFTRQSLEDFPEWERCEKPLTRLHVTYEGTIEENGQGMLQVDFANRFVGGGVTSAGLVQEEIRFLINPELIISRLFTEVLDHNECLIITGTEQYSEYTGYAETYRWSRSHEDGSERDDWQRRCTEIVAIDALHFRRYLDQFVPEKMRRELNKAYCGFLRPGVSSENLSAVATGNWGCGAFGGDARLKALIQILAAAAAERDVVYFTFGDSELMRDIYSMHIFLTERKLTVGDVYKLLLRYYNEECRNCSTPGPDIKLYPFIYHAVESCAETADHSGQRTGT

SMILES	IC50 [1]	IC50 [2]
CC1(O)CC2(CCN(c3cc(S(=O)(=O)NC4(C#N)CC4)cn4c(-c5nnc(C(F)(F)F)s5)ncc34)CC2)C1 [Example 242, N-(1-cyanocyclopropyl)-8-(2-hydroxy-2-methyl-7-azaspiro[3.5]nonan-7-yl)-3-(5-(trifluoromethyl)-1,3,4-thiadiazol-2-yl)imidazo[1,5-a]pyridine-6-sulfonamide]	52.5 nM	2980 nM
COc1ccc(C(=O)/C=C/C(=O)N2CCN(c3cc(S(=O)(=O)NC4CC4)cn4c(-c5nnc(C(F)(F)F)s5)ncc34)CC2)cc1 [Example 243, (E)-N-cyclopropyl-8-(4-(4-(4-methoxyphenyl)-4-oxobut-2-enoyl)piperazin-1-yl)-3-(5-(trifluoromethyl)-1,3,4-thiadiazol-2-yl)imidazo[1,5-a]pyridine-6-sulfonamide]	871 nM	200 nM
N#CC1(NS(=O)(=O)c2cc(N3CCN(c4ccccn4)CC3)c3cnc(-c4nnc(C(F)(F)F)s4)n3c2)CC1 [Example 244, N-(1-cyanocyclopropyl)-8-(4-(pyridin-2-yl)piperazin-1-yl)-3-(5-(trifluoromethyl)-1,3,4-thiadiazol-2-yl)imidazo[1,5-a]pyridine-6-sulfonamide]	75.9 nM	9000 nM
CO[C@H]1C[C@H](C(=O)N2CCN(c3cc(S(=O)(=O)NC4(C#N)CC4)cn4c(-c5nnc(C(F)(F)F)s5)ncc34)CC2)C1 [Example 245, N-(1-cyanocyclopropyl)-8-(4-((1r,3r)-3-methoxycyclobutane-1-carbonyl)piperazin-1-yl)-3-(5-(trifluoromethyl)-1,3,4-thiadiazol-2-yl)imidazo[1,5-a]pyridine-6-sulfonamide]	28.8 nM	2360 nM
N#CC1(NS(=O)(=O)c2cc(N3CCNC(=O)C3)c3cnc(-c4nnc(C(F)(F)F)s4)n3c2)CC1 [Example 248, N-(1-cyanocyclopropyl)-8-(3-oxopiperazin-1-yl)-3-(5-(trifluoromethyl)-1,3,4-thiadiazol-2-yl)imidazo[1,5-a]pyridine-6-sulfonamide]	692 nM	6440 nM
CN(C)CCC(=O)N1CCN(c2cc(S(=O)(=O)NC3(C#N)CC3)cn3c(-c4nnc(C(F)(F)F)s4)ncc23)CC1 [Example 249, N-(1-cyanocyclopropyl)-8-(4-(3-(dimethylamino)propanoyl)piperazin-1-yl)-3-(5-(trifluoromethyl)-1,3,4-thiadiazol-2-yl)imidazo[1,5-a]pyridine-6-sulfonamide]	115 nM	7320 nM
CN(C)CC(=O)N1CCN(c2cc(S(=O)(=O)NC3(C#N)CC3)cn3c(-c4nnc(C(F)(F)F)s4)ncc23)CC1 [Example 250, N-(1-cyanocyclopropyl)-8-(4-(dimethylglycyl)piperazin-1-yl)-3-(5-(trifluoromethyl)-1,3,4-thiadiazol-2-yl)imidazo[1,5-a]pyridine-6-sulfonamide]	38 nM	1280 nM
CN1CC(C(=O)N2CCN(c3cc(S(=O)(=O)NC4(C#N)CC4)cn4c(-c5nnc(C(F)(F)F)s5)ncc34)CC2)C1 [Example 252, N-(1-cyanocyclopropyl)-8-(4-(1-methylazetidine-3-carbonyl)piperazin-1-yl)-3-(5-(trifluoromethyl)-1,3,4-thiadiazol-2-yl)imidazo[1,5-a]pyridine-6-sulfonamide]	16.6 nM	2000 nM
N#CC1(NS(=O)(=O)c2cc(N3CCN(C(=O)CCC(=O)O)CC3)c3cnc(-c4nnc(C(F)(F)F)s4)n3c2)CC1 [Example 253, 4-(4-(6-(N-(1-cyanocyclopropyl)sulfamoyl)-3-(5-(trifluoromethyl)-1,3,4-thiadiazol-2-yl)imidazo[1,5-a]pyridin-8-yl)piperazin-1-yl)-4-oxobutanoic acid]	57.5 nM	1000 nM
N#CC1(NS(=O)(=O)c2cc(N3CCN(C(=O)c4ccno4)CC3)c3cnc(-c4nnc(C(F)(F)F)s4)n3c2)CC1 [Example 255, N-(1-cyanocyclopropyl)-8-(4-(isoxazole-5-carbonyl)piperazin-1-yl)-3-(5-(trifluoromethyl)-1,3,4-thiadiazol-2-yl)imidazo[1,5-a]pyridine-6-sulfonamide]	17.4 nM	420 nM
CC#CC(C)(O)C(=O)N1CCN(c2cc(S(=O)(=O)NC3(C#N)CC3)cn3c(-c4nnc(C(F)(F)F)s4)ncc23)CC1 (stereo not drawn) [Example 256, N-(1-cyanocyclopropyl)-8-(4-(2-hydroxy-2-methylpent-3-ynoyl)piperazin-1-yl)-3-(5-(trifluoromethyl)-1,3,4-thiadiazol-2-yl)imidazo[1,5-a]pyridine-6-sulfonamide]	8.71 nM	80 nM
CC(O)(C#Cc1ccccc1)C(=O)N1CCN(c2cc(S(=O)(=O)NC3(C#N)CC3)cn3c(-c4nnc(C(F)(F)F)s4)ncc23)CC1 (stereo not drawn) [Example 257, N-(1-cyanocyclopropyl)-8-(4-(2-hydroxy-2-methyl-4-phenylbut-3-ynoyl)piperazin-1-yl)-3-(5-(trifluoromethyl)-1,3,4-thiadiazol-2-yl)imidazo[1,5-a]pyridine-6-sulfonamide]	191 nM	2110 nM
CCC(=O)C1CCN(c2cc(S(=O)(=O)NC3(C#N)CC3)cn3c(-c4nnc(C(F)(F)F)s4)ncc23)CC1 [Example 258, N-(1-cyanocyclopropyl)-8-(4-propionylpiperidin-1-yl)-3-(5-(trifluoromethyl)-1,3,4-thiadiazol-2-yl)imidazo[1,5-a]pyridine-6-sulfonamide]	550 nM	2830 nM
CC(CO)C(=O)N1CCN(c2cc(S(=O)(=O)NC3(C#N)CC3)cn3c(-c4nnc(C(F)(F)F)s4)ncc23)CC1 (stereo not drawn) [Example 259, N-(1-cyanocyclopropyl)-8-(4-(3-hydroxy-2-methylpropanoyl)piperazin-1-yl)-3-(5-(trifluoromethyl)-1,3,4-thiadiazol-2-yl)imidazo[1,5-a]pyridine-6-sulfonamide]	45.7 nM	1500 nM
COC(C)C(=O)N1CCN(c2cc(S(=O)(=O)NC3(C#N)CC3)cn3c(-c4nnc(C(F)(F)F)s4)ncc23)CC1 (stereo not drawn) [Example 260, N-(1-cyanocyclopropyl)-8-(4-(2-methoxypropanoyl)piperazin-1-yl)-3-(5-(trifluoromethyl)-1,3,4-thiadiazol-2-yl)imidazo[1,5-a]pyridine-6-sulfonamide]	28.8 nM	250 nM
N#CC1(NS(=O)(=O)c2cc(N3CCN(C(=O)C(O)C(F)(F)F)CC3)c3cnc(-c4nnc(C(F)F)s4)n3c2)CC1 (stereo not drawn) [Example 261, N-(1-cyanocyclopropyl)-3-(5-(difluoromethyl)-1,3,4-thiadiazol-2-yl)-8-(4-(3,3,3-trifluoro-2-hydroxypropanoyl)piperazin-1-yl)imidazo[1,5-a]pyridine-6-sulfonamide]	100 nM	370 nM
N#CC1(NS(=O)(=O)c2cc(N3CCN(C(=O)[C@H]4CCN4)CC3)c3cnc(-c4nnc(C(F)(F)F)s4)n3c2)CC1 [Example 264, (R)-8-(4-(azetidine-2-carbonyl)piperazin-1-yl)-N-(1-cyanocyclopropyl)-3-(5-(trifluoromethyl)-1,3,4-thiadiazol-2-yl)imidazo[1,5-a]pyridine-6-sulfonamide]	75.9 nM	6640 nM
N#CC1(NS(=O)(=O)c2cc(N3CCN(C(=O)[C@H]4CCCN4)CC3)c3cnc(-c4nnc(C(F)(F)F)s4)n3c2)CC1 [Example 265, (R)-N-(1-cyanocyclopropyl)-8-(4-prolylpiperazin-1-yl)-3-(5-(trifluoromethyl)-1,3,4-thiadiazol-2-yl)imidazo[1,5-a]pyridine-6-sulfonamide]	158 nM	8000 nM
CN(C)C1(C(=O)N2CCN(c3cc(S(=O)(=O)NC4(C#N)CC4)cn4c(-c5nnc(C(F)(F)F)s5)ncc34)CC2)CC1 [Example 266, N-(1-cyanocyclopropyl)-8-(4-(1-(dimethylamino)cyclopropane-1-carbonyl)piperazin-1-yl)-3-(5-(trifluoromethyl)-1,3,4-thiadiazol-2-yl)imidazo[1,5-a]pyridine-6-sulfonamide]	132 nM	370 nM
CC(C)C(=O)NC1CCN(c2cc(S(=O)(=O)NC3(C#N)CC3)cn3c(-c4nnc(C(F)(F)F)s4)ncc23)CC1 [Example 268, N-(1-(6-(N-(1-cyanocyclopropyl)sulfamoyl)-3-(5-(trifluoromethyl)-1,3,4-thiadiazol-2-yl)imidazo[1,5-a]pyridin-8-yl)piperidin-4-yl)isobutyramide]	100 nM	2210 nM
N#CC1(NS(=O)(=O)c2cc(N3CCN(C(=O)[C@@H]4CCN4)CC3)c3cnc(-c4nnc(C(F)(F)F)s4)n3c2)CC1 [Example 269, (S)-8-(4-(azetidine-2-carbonyl)piperazin-1-yl)-N-(1-cyanocyclopropyl)-3-(5-(trifluoromethyl)-1,3,4-thiadiazol-2-yl)imidazo[1,5-a]pyridine-6-sulfonamide]	79.4 nM	20000 nM
N#CC1(NS(=O)(=O)c2cc(N3CCN(C(=O)[C@@H]4CCCN4)CC3)c3cnc(-c4nnc(C(F)(F)F)s4)n3c2)CC1 [Example 270, (S)-N-(1-cyanocyclopropyl)-8-(4-prolylpiperazin-1-yl)-3-(5-(trifluoromethyl)-1,3,4-thiadiazol-2-yl)imidazo[1,5-a]pyridine-6-sulfonamide]	91.2 nM	35900 nM
N#CC1(NS(=O)(=O)c2cc(N3CCN(C(=O)[C@@H]4CCNC4)CC3)c3cnc(-c4nnc(C(F)(F)F)s4)n3c2)CC1 [Example 271, (R)-N-(1-cyanocyclopropyl)-8-(4-(pyrrolidine-3-carbonyl)piperazin-1-yl)-3-(5-(trifluoromethyl)-1,3,4-thiadiazol-2-yl)imidazo[1,5-a]pyridine-6-sulfonamide]	11.5 nM	36200 nM
N#CC1(NS(=O)(=O)c2cc(N3CCN(C(=O)[C@H]4CCNC4)CC3)c3cnc(-c4nnc(C(F)(F)F)s4)n3c2)CC1 [Example 272, (S)-N-(1-cyanocyclopropyl)-8-(4-(pyrrolidine-3-carbonyl)piperazin-1-yl)-3-(5-(trifluoromethyl)-1,3,4-thiadiazol-2-yl)imidazo[1,5-a]pyridine-6-sulfonamide]	7.24 nM	5410 nM
